Assay results taken from patent US20060079453A1, “Hla binding peptides and their uses” (priority 2002, published 2006).
No end group written: not given here.

Assays:
Assay in all cases: biochemical
Type in all cases: binding
HLA-DR DRB1*0101 (DR1) = HLA-DR DRB1*0101 (DR1) (Homo sapiens, UniProt P01903+P01911, A100R/D57E/F55L/F60I/F76Y/I96L/L162R/M171V/P40L/Q125E/R42F/V115G/Y59C); details: DRB1 *0101
HLA-DR DRB4*0101 (DR53) = HLA-DR DRB4*0101 (DR53) (Homo sapiens, UniProt P01903+P13762, G164S); details: DRB4 *0101
HLA-DR DRB1*0301 (DR3) = HLA-DR DRB1*0301 (DR3) (Homo sapiens, UniProt P01903+P01911, A100K/A102G/A103R/A169T/F55Y/I96L/K41T/L162R/M171V/P40S/Q125H/Q178H/Q39Y/R42S/S66N/T106N/T262R/W38E/Y61H)
HLA-DR DRB1*0401 (DR4) = HLA-DR DRB1*0401 (DR4) (Homo sapiens, UniProt P01903+P01911, A100K/A169T/F76Y/I96L/K127E/L162R/M171V/N62H/P40V/Q125Y/R42H/S133A/S149N/S66Y/V115G/V209L/W38E); details: DRB1 *0401
HLA-DR DRB1*1302 (DR13) = HLA-DR DRB1*1302 (DR13) (Homo sapiens, UniProt P01903+P01911, A100E/A169T/K41T/L162R/M171V/P40S/Q125H/Q178H/Q39Y/Q99D/R42S/S66N/T262R/V115G/W38E/Y61H); details: DRBI *1302
HLA-DR DRB1*1501 (DR15) = HLA-DR DRB1*1501 (DR15) (Homo sapiens, UniProt P01903+P01911); details: DRBI *1501
HLA-DR DRB3*0101 (DR52) = HLA-DR DRB3*0101 (DR52) (Homo sapiens, UniProt P01903+P79483)
HLA-DR DRB1*0802 (DR8) = HLA-DR DRB1*0802 (DR8) (Homo sapiens, UniProt P01903+P01911, A100R/A103L/A169T/F76Y/H45Y/I96F/K41T/L162R/M171V/P40S/Q125H/Q178H/Q39Y/Q99D/R218S/R42G/S66Y/V115G/W38E)
HLA-DR DRB1*0901 (DR9) = HLA-DR DRB1*0901 (DR9) (Homo sapiens, UniProt P01903+P01911, A100R/A103E/D57H/D86V/F55Y/F60I/F76Y/I96F/K127E/L162R/M171V/P40D/Q125H/Q99R/R33Q/R42F/S133A/S66N/T210M/V115G/W38K/Y107V/Y59G/Y89S); details: DRB1 *0901
HLA-DR DRB1*0701 (DR7) = HLA-DR DRB1*0701 (DR7) (Homo sapiens, UniProt P01903+P01911, A100R/A102G/A103Q/D57E/D86V/E43K/F76Y/K127E/L162R/M171V/P40G/Q125H/Q99D/R33Q/R42Y/R54Q/S133A/S66F/T210M/V115G/Y107V/Y59L/Y89S); details: DRB1 *0701
HLA-DR DRB5*0101 (DR51) = HLA-DR DRB5*0101 (DR51) (Homo sapiens, UniProt P01903+Q30154); details: DRB5 *0101
HLA-DR DRB1*1101 (DR11) = HLA-DR DRB1*1101 (DR11) (Homo sapiens, UniProt P01903+P01911, A100R/A169T/A87E/I96F/K41T/L162R/M171V/P40S/Q125H/Q178H/Q39Y/Q99D/R42S/S66Y/T262R/V115G/W38E); details: DRB1 *1101
Sequence of HLA-DR DRB1*1101 (DR11) (P01903 26-254 limits assumed, other chains not shown): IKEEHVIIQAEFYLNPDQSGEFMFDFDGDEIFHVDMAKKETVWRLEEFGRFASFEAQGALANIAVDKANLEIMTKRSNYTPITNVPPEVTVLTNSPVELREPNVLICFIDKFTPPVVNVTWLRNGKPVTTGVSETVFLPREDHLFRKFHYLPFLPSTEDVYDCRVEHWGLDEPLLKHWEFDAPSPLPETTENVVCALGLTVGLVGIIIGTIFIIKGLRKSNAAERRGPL

Sequence of HLA-DR DRB1*0301 (DR3) (P01903 26-254 limits assumed, other chains not shown): as above
Sequence of HLA-DR DRB1*1302 (DR13) (P01903 26-254 limits assumed, other chains not shown): as above

Row | Compound | IC50 (HLA-DR DRB1*0101 (DR1)) [µM] | IC50 (HLA-DR DRB4*0101 (DR53)) [µM] | IC50 (HLA-DR DRB1*0301 (DR3)) [µM] | IC50 (HLA-DR DRB1*0401 (DR4)) [µM] | IC50 (HLA-DR DRB1*1302 (DR13)) [µM] | IC50 (HLA-DR DRB1*1501 (DR15)) [µM] | IC50 (HLA-DR DRB3*0101 (DR52)) [µM] | IC50 (HLA-DR DRB1*0802 (DR8)) [µM] | IC50 (HLA-DR DRB1*0901 (DR9)) [µM] | IC50 (HLA-DR DRB1*0701 (DR7)) [µM] | IC50 (HLA-DR DRB5*0101 (DR51)) [µM] | IC50 (HLA-DR DRB1*1101 (DR11)) [µM]
1 | CC(C)C[C@H](NC(=O)[C@@H](NC(=O)CN)C(C)C)C(=O)N[C@H](C(=O)N[C@@H](Cc1c[nH]cn1)C(=O)N1CCC[C@H]1C(=O)N[C@@H](CCC(N)=O)C(=O)N[C@@H](Cc1c[nH]c2ccccc12)C(=O)N[C@H](C(=O)N[C@@H](CC(C)C)C(=O)N[C@H](C(=O)N[C@@H](C)C(=O)N[C@@H](C)C(=O)N[C@@H](Cc1c[nH]cn1)C(=O)N[C@@H](CS)C(=O)O)[C@@H](C)O)C(C)C)C(C)C | 0.087 | 0.0062 | 21.3 | 0.067 | 2.43 | 0.066 | > 10.7 | 1.93 |  |  |  | 
2 | CC[C@H](C)[C@H](NC(=O)[C@H](CO)NC(=O)[C@@H](NC(=O)CNC(=O)[C@H](CCC(=O)O)NC(=O)[C@@H]1CCCN1)C(C)C)C(=O)N[C@@H](Cc1c[nH]c2ccccc12)C(=O)N[C@@H](CC(N)=O)C(=O)N1CCC[C@H]1C(=O)N[C@H](C(=O)N[C@@H](CC(C)C)C(=O)N[C@@H](CC(C)C)C(=O)N[C@@H](Cc1c[nH]c2ccccc12)C(=O)N[C@@H](CCC(N)=O)C(=O)N1CCC[C@H]1C(=O)O)[C@@H](C)CC |  | 0.107 |  | 1.78 |  | 0.0072 | 4.62 | 28.6 | 103 | 15 | 22.2 | 30.9
3 | CC(C)C[C@H](NC(=O)[C@H](CCC(=O)O)NC(=O)[C@H](CCCCN)NC(=O)[C@H](C)N)C(=O)N[C@@H](CCCCN)C(=O)N[C@@H](Cc1ccccc1)C(=O)N[C@H](C(=O)N[C@H](C(=O)N[C@@H](CC(C)C)C(=O)N[C@H](C(=O)N[C@@H](Cc1ccccc1)C(=O)N[C@@H](CCCNC(=N)N)C(=O)N[C@@H](Cc1c[nH]cn1)C(=O)NCC(=O)N[C@@H](CC(=O)O)C(=O)O)C(C)C)[C@@H](C)O)C(C)C |  | 0.051 | 30 | 0.783 | 0.824 |  | 8.56 | 1.95 |  |  | 0.024 | 
4 | GQRVPVSHSFPHPLY | 1.56 | 9.86 |  | > 40 | 0.703 |  | > 14.9 | > 245 | 0.102 | 0.629 | > 200 | > 200
5 | CC[C@H](C)[C@H](NC(=O)[C@H](CO)NC(=O)[C@H](CO)NC(=O)[C@H](CC(=O)O)NC(=O)[C@H](C)NC(=O)[C@H](CC(N)=O)NC(=O)[C@@H](NC(=O)[C@H](Cc1ccc(O)cc1)NC(=O)[C@H](C)NC(=O)[C@@H](NC(=O)CN)C(C)C)[C@@H](C)CC)C(=O)N[C@@H](CCC(=O)O)C(=O)NCC(=O)N[C@@H](CC(N)=O)C(=O)N[C@@H](Cc1ccc(O)cc1)C(=O)O |  | 0.477 |  | 0.146 |  | 7.61 | 1.42 | 23.4 | 3.05 | 6.24 | 66.7 | > 40
6 | LRMMNDQLMFLERAF | 2.7 | 0.05 |  | 0.392 | 1.31 |  | 1.57 | 2.49 | 4.6 | 17.5 | 0.758 | 1.83
7 | CC(C)C[C@H](NC(=O)[C@@H](NC(=O)[C@H](CCC(N)=O)NC(=O)[C@H](Cc1c[nH]c2ccccc12)NC(=O)[C@@H]1CCCN1C(=O)[C@H](CCC(N)=O)NC(=O)[C@@H](N)CO)C(C)C)C(=O)N[C@H](C(=O)N[C@@H](C)C(=O)N[C@@H](CO)C(=O)N[C@@H](CCCNC(=N)N)C(=O)NCC(=O)N[C@@H](CCCNC(=N)N)C(=O)N[C@@H](C)C(=O)N[C@H](C(=O)O)C(C)C)C(C)C | 0.066 | 7.56 | > 81.8 | 7.63 | 0.032 | 11.3 | > 12.1 | 0.386 |  |  | 0.084 | 
8 | VILLGRHSLFHPEDT | 0.273 | 10.7 | 8.74 | 8.21 | 0.543 | 0.426 | > 12.1 | 0.737 |  | 30.6 | ≥ 100 | 
9 | CSCC[C@H](NC(=O)CNC(=O)[C@H](CC(C)C)NC(=O)[C@H](CCC(N)=O)NC(=O)[C@@H](NC(=O)[C@H](CC(C)C)NC(=O)[C@H](CCC(N)=O)NC(=O)CNC(=O)[C@@H](N)Cc1ccccc1)[C@@H](C)O)C(=O)N[C@@H](CCC(=O)O)C(=O)N[C@@H](CCC(N)=O)C(=O)N[C@@H](Cc1c[nH]cn1)C(=O)N[C@@H](Cc1ccc(O)cc1)C(=O)N[C@@H](CCC(=O)O)C(=O)N[C@@H](CC(C)C)C(=O)O | 2.26 | 0.543 |  | 3.21 | > 35 | > 22.8 | > 14.4 | 110 | > 187 | > 62.5 | ≥ 100 | 
10 | AKTFLRTLVRGVPEY | 0.104 | 0.472 | 54.2 | 0.208 | 0.094 | 0.829 | 0.546 | 0.0092 |  | 0.025 | 3.48 | 0.0063
11 | QWVLTAAHCLKKNSQ | 0.895 | 14.4 |  | > 40 | > 35 | > 45.5 | > 14.9 | 98 | 4.81 | 3.4 | 0.382 | 
12 | CC[C@H](C)[C@H](NC(=O)[C@H](CCC(N)=O)NC(=O)[C@@H](NC(=O)[C@H](Cc1ccccc1)NC(=O)[C@H](CC(N)=O)NC(=O)[C@H](Cc1ccc(O)cc1)NC(=O)[C@H](CC(C)C)NC(=O)[C@H](Cc1ccccc1)NC(=O)[C@@H](N)CCCCN)[C@@H](C)O)C(=O)N1CCC[C@H]1C(=O)N[C@@H](Cc1c[nH]cn1)C(=O)N[C@@H](CC(C)C)C(=O)N[C@@H](C)C(=O)NCC(=O)N[C@H](C(=O)O)[C@@H](C)O | 0.34 | 0.256 |  |  | 0.221 |  | 10.2 | 0.415 | 0.054 | 0.03 | 1.6 | 0.091
13 | CC[C@H](C)[C@H](NC(=O)[C@@H](NC(=O)[C@H](Cc1c[nH]cn1)NC(=O)[C@@H](N)CCCNC(=N)N)C(C)C)C(=O)N[C@@H](Cc1ccc(O)cc1)C(=O)N[C@@H](C)C(=O)N1CCC[C@H]1C(=O)N[C@@H](CO)C(=O)N[C@@H](CO)C(=O)N[C@@H](Cc1c[nH]cn1)C(=O)N[C@@H](CC(N)=O)C(=O)N[C@@H](CCCCN)C(=O)N[C@@H](Cc1ccc(O)cc1)C(=O)N[C@@H](C)C(=O)NCC(=O)O | 2.17 | 5.29 |  | 0.481 |  |  | > 62.8 | 11.7 | 0.481 | 31.2 | 0.088 | 13.4
14 | LFRVYSNFLRGKLKL | 0.043 | 2.33 | 6.16 | 0.643 | 0.08 | 0.0028 | 8.98 | 0.028 |  | 0.0055 | 0.0029 | 0.173
15 | NMSLLKHQSLRPDED [NMSLLKHQSLRPDED] | 3.13 |  |  | > 40 | > 35 | > 30.3 | > 14.9 | 26.5 | 96.8 |  | > 100 | 25.8
16 | RPGLLGASVLGLDDI |  | 22 | 35.8 | 6.52 | 2.06 | 6 | 30.2 | > 61.2 |  |  | > 88.9 | > 93.9
